Assay results reported in patent publication US5225607A, “Insecticidal ethers” (Imperial Chemical Industries PLC, priority 1985, dated 1993).

How the values were obtained:
Assay type in all cases: in vivo
Heliothis virescens = assay: whole plant or invertebrate; settings: in Gossypium hirsutum, 72 h, read-out: grading of mortality, HV
Method: (§1) The activity of the Product was determined using a variety of insect and acarine pests. The Product was used in the form of liquid preparations containing 500, 250 or 100 parts per million (ppm) by weight of the Product. The preparations were made by dissolving the Product in acetone and diluting the solutions with water containing 0.01% by weight of a wetting agent sold under the trade name "LISSAPOL" NX until the liquid preparations contained the required concentratio of the Product. "Lissapol" is a Registered Trade Mark.
(§2) The test procedure adopted with regard to each pest was basically the same and comprised supporting a number of the pests on a medium which was usually a host plant or a foodstuff on which the pests feed, and treating either or both the pests and the medium with the preparations. The mortality of the pests was then assessed at periods usually varying from one to three days after the treatment.
(§3) The results of the tests are given in Table IV for each of the Products, at the rate in parts per million given in the second column as a grading of mortality designated as A, B or C wherein A indicates 80-100% mortality or knockdown (70-100% in the case of Spodoptera exigua), B indicates 50-79% mortality or knockdown (50-69% in the case of Spodoptera exigua) and C indicates less than 50% mortality or knockdown.
(§4) In Table IV the pest organism used is designated by a letter code and the pest species, the support medium or food, and the type and duration of test is given in Table III.

Nilaparvata lugens = assay: Insecticidal test, Nilaparvata lugens (brown planthopper), contact; settings: 72 h, Cabbage leaf, 3 days, read-out: grading of mortality, NL
Method: as §1, §2, §3, §4

Blattella germanica = assay: Insecticidal test, Blattella germanica (cockroach nymphs), residual; settings: 72 h, plastic pot, 3 days, read-out: grading of mortality, BG
Method: as §1, §2, §3, §4

Diabrotica balteata = assay: Insecticidal test, Diabrotica balteata (rootworm larvae), residual; settings: 72 h, filter paper/maize seed, 3 days, read-out: grading of mortality, DB
Method: as §1, §2, §3, §4

Myzus persicae = assay: Insecticidal test, Myzus persicae (aphids), contact; settings: 72 h, Chinese Cabbage leaf, 3 days, read-out: grading of mortality, MP
Method: as §1, §2, §3, §4

Tetranychus urticae = assay: Insecticidal/acaricidal test, Tetranychus urticae (spider mites - adult), contact; settings: 72 h, French bean leaf, 3 days, read-out: grading of mortality, TU
Method: as §1, §2, §3, §4

Musca domestica [1] = assay: Insecticidal test, Musca domestica (houseflies - adults), contact; settings: 24 h, cotton wool/sugar, 1 day, read-out: grading of mortality, MD
Method: as §1, §2, §3, §4

Musca domestica [2] = assay: Knockdown test, Musca domestica (houseflies - adults); settings: cotton wool/sugar, 4 hours, read-out: grading of knockdown, MD/KD
Method: as §1, §2
In the case of the species Musca domestica (housefly), additional tests to determine the knockdown effect of the compounds were performed.
as §3, §4

| Structure (SMILES) | mortality at 500 ppm (Heliothis virescens) [%] | mortality at 500 ppm (Nilaparvata lugens) [%] | mortality at 500 ppm (Blattella germanica) [%] | mortality at 500 ppm (Diabrotica balteata) [%] | mortality at 500 ppm (Myzus persicae) [%] | mortality at 500 ppm (Tetranychus urticae) [%] | mortality at 500 ppm (Musca domestica [1]) [%] | pest or weed control at 500 ppm (Musca domestica [2]) [%] | other results |
| --- | --- | --- | --- | --- | --- | --- | --- | --- | --- |
| CCOc1ccc(C(Cl)(COCc2cccc(-c3ccccc3)c2C)C(F)(F)F)cc1 (stereo not drawn) [Compound 46, 1,1,1-Trifluoro-2-chloro-2-(4-ethoxyphenyl)-3-(2-methyl-3-phenylbenzyloxy)propane] | < 50 | < 50 | < 50 | < 50 | < 50 | < 50 | < 50 | 80 to 100 |  |
| COc1ccc(C(COCc2ccc(F)c(Oc3ccccc3)c2)C(F)(F)F)cc1 (stereo not drawn) [Compound 29, 1,1,1-Trifluoro-2-(4-methoxyphenyl)-3-(3-phenoxy-4-fluorobenzyloxy)propane] |  |  |  |  |  |  |  |  | mortality at 100 ppm (Heliothis virescens): 80 to 100%; mortality at 100 ppm (Nilaparvata lugens): 80 to 100%; mortality at 100 ppm (Blattella germanica): 80 to 100%; mortality at 100 ppm (Diabrotica balteata): 80 to 100%; mortality at 100 ppm (Myzus persicae): 80 to 100%; mortality at 100 ppm (Tetranychus urticae): < 50%; mortality at 100 ppm (Musca domestica [1]): 80 to 100%; pest or weed control at 100 ppm (Musca domestica [2]): 80 to 100% |
| CCOc1ccc(C(O)(COCc2cccc(Oc3ccccc3)c2)C(F)(F)F)cc1 (stereo not drawn) [Compound 112, 1,1,1-trifluoro-2-(4-ethoxyphenyl)-3-(3-phenoxybenzyloxy)propan-2-ol] |  |  |  |  |  |  |  |  | mortality at 250 ppm (Heliothis virescens): < 50%; mortality at 250 ppm (Nilaparvata lugens): < 50%; mortality at 250 ppm (Blattella germanica): < 50%; mortality at 250 ppm (Diabrotica balteata): 80 to 100%; mortality at 250 ppm (Myzus persicae): < 50%; mortality at 250 ppm (Tetranychus urticae): < 50%; mortality at 250 ppm (Musca domestica [1]): < 50%; pest or weed control at 250 ppm (Musca domestica [2]): 50 to 79% |
| FC(F)(F)Oc1ccc(C(COCc2cccc(Oc3ccc(Cl)cc3)c2)C(F)(F)F)cc1 (stereo not drawn) [Compound 26, 1,1,1-Trifluoro-2-(4-trifluoromethoxyphenyl)-3-(3-(4-chlorophenoxy)benzyloxy)propane] |  |  |  |  |  |  |  |  | mortality at 100 ppm (Heliothis virescens): 80 to 100%; mortality at 100 ppm (Nilaparvata lugens): 80 to 100%; mortality at 100 ppm (Blattella germanica): 80 to 100%; mortality at 100 ppm (Diabrotica balteata): 80 to 100%; mortality at 100 ppm (Myzus persicae): 50 to 79%; mortality at 100 ppm (Tetranychus urticae): 80 to 100%; mortality at 100 ppm (Musca domestica [1]): 80 to 100%; pest or weed control at 100 ppm (Musca domestica [2]): 80 to 100% |
| CCOc1ccc(C(O)(COCc2cccc(-c3ccccc3)c2C)C(F)(F)F)cc1 (stereo not drawn) [Compound 142, 1,1,1-Trifluoro-2-(4-ethoxyphenyl)-3-(2-methyl-3-phenylbenzyloxy)propan-2-ol] | 80 to 100 | < 50 | < 50 | < 50 | < 50 | 80 to 100 | < 50 | < 50 |  |
| Fc1ccc(COCC(c2ccc3c(c2)CCC3)C(F)(F)F)cc1Oc1ccccc1 (stereo not drawn) [Compound 19, 1,1,1-Trifluoro-2-(5-indanyl)-3-(3-phenoxy-4-fluorobenzyloxy)propane] |  |  |  |  |  |  |  |  | mortality at 250 ppm (Heliothis virescens): 80 to 100%; mortality at 250 ppm (Nilaparvata lugens): 80 to 100%; mortality at 250 ppm (Blattella germanica): 80 to 100%; mortality at 250 ppm (Diabrotica balteata): 80 to 100%; mortality at 250 ppm (Myzus persicae): 80 to 100%; mortality at 250 ppm (Tetranychus urticae): < 50%; mortality at 250 ppm (Musca domestica [1]): 80 to 100%; pest or weed control at 250 ppm (Musca domestica [2]): 80 to 100% |
| CCOc1ccc(C(F)(COCc2cccc(-c3ccccc3)c2C)C(F)(F)F)cc1 (stereo not drawn) [Compound 80, 1,1,1,2-Tetrafluoro-2-(4-ethoxyphenyl)-3-(2-methyl-3-phenylbenzyloxy)propane] | < 50 | 80 to 100 | 80 to 100 | 80 to 100 | 80 to 100 | < 50 | 80 to 100 | 80 to 100 |  |
| OC(COCc1ccc(F)c(Oc2ccccc2)c1)(c1ccc2c(c1)CCC2)C(F)(F)F (stereo not drawn) [Compound 124, 1,1,1-Trifluoro-2-(5-indanyl)-3-(3-phenoxy-4-fluorobenzyloxy)propan-2-ol] | < 50 | < 50 | < 50 | < 50 | < 50 | 80 to 100 | < 50 | < 50 |  |
| CCOc1ccc(C(F)(COCc2cccc(Oc3ccc(Cl)cc3)c2)C(F)(F)F)cc1 (stereo not drawn) [Compound 79, 1,1,1,2-Tetrafluoro-2-(4-ethoxyphenyl)-3-(3-(4-chlorophenoxy)benzyloxy)propane] |  |  |  |  |  |  |  |  | mortality at 250 ppm (Heliothis virescens): 80 to 100%; mortality at 250 ppm (Nilaparvata lugens): 80 to 100%; mortality at 250 ppm (Blattella germanica): 80 to 100%; mortality at 250 ppm (Diabrotica balteata): < 50%; mortality at 250 ppm (Myzus persicae): < 50%; mortality at 250 ppm (Tetranychus urticae): < 50%; mortality at 250 ppm (Musca domestica [1]): 80 to 100%; pest or weed control at 250 ppm (Musca domestica [2]): 80 to 100% |
| Fc1ccc(COCC(Cl)(c2ccc3c(c2)CCC3)C(F)(F)F)cc1Oc1ccccc1 (stereo not drawn) [Compound 52, 1,1,1,-Trifluoro-2-chloro-2-(5-indanyl)-3-(3-phenoxy-4-fluorobenzyloxy)propane] | 50 to 79 | < 50 | 80 to 100 | < 50 | < 50 | < 50 | 50 to 79 | 80 to 100 |  |
| CCCc1ccc(C(Cl)(COCc2ccc(F)c(Oc3ccccc3)c2)C(F)(F)F)cc1 (stereo not drawn) [Compound 53, 1,1,1-Trifluoro-2-chloro-2-(4-n-propylphenyl)-3-(3-phenoxy-4-fluorobenzyloxy)propane] | 80 to 100 | 80 to 100 | 80 to 100 | 80 to 100 | 80 to 100 | 80 to 100 | 80 to 100 | 80 to 100 |  |
| Fc1ccc(COC=C(c2ccc3c(c2)CCC3)C(F)(F)F)cc1Oc1ccccc1 [Compound 459, 1,1,1-trifluoro-2-(5-indanyl)-3-(3-phenoxy-4-fluorobenzyloxy)prop-2-ene] | < 50 | < 50 | < 50 | 80 to 100 | < 50 | 80 to 100 | < 50 | 50 to 79 |  |
| CCOc1ccc(C(Cl)(COCc2cccc(Oc3ccc(Cl)cc3)c2)C(F)(F)F)cc1 (stereo not drawn) [Compound 42, 1,1,1-Trifluoro-2-chloro-2-(4-ethoxyphenyl)-3-(3-(4-chlorophenoxy)benzyloxy)propane] |  |  |  |  |  |  |  |  | mortality at 250 ppm (Heliothis virescens): 80 to 100%; mortality at 250 ppm (Nilaparvata lugens): 80 to 100%; mortality at 250 ppm (Blattella germanica): 80 to 100%; mortality at 250 ppm (Diabrotica balteata): 50 to 79%; mortality at 250 ppm (Myzus persicae): 80 to 100%; mortality at 250 ppm (Tetranychus urticae): < 50%; mortality at 250 ppm (Musca domestica [1]): 80 to 100%; pest or weed control at 250 ppm (Musca domestica [2]): 80 to 100% |
| FC(F)(F)Oc1ccc(C(F)(COCc2cccc(Oc3ccccc3)c2)C(F)(F)F)cc1 (stereo not drawn) [Compound 82, 1,1,1,2-Tetrafluoro-2-(4-trifluoromethoxyphenyl)-3-(3-phenoxybenzyloxy)propane] | 80 to 100 | < 50 | 80 to 100 | 80 to 100 | 80 to 100 | < 50 | 80 to 100 | 80 to 100 |  |
| Fc1ccc(COCC(c2ccc(Cl)cc2)C(F)(F)F)cc1Oc1ccccc1 (stereo not drawn) [Compound 15] |  | 80 to 100 | 80 to 100 | 80 to 100 | 80 to 100 | 80 to 100 | 80 to 100 | 80 to 100 |  |
| CCOc1ccc(C(O)(COCc2ccc(F)c(Oc3ccc(Br)cc3)c2)C(F)(F)F)cc1 (stereo not drawn) [Compound 116, 1,1,1-Trifluoro-2-(4-ethoxyphenyl)-3-(3-(4-bromophenoxy)-4-fluorobenzyloxy)propan-2-ol] |  | < 50 | < 50 | < 50 | < 50 | 80 to 100 | 50 to 79 | 50 to 79 |  |
